In paper PMC2924647 (The EMBO Journal, 2010):
Where two headings read alike, the source gives them in different places. Positions of bridges follow the written chain, without caps; N, C: chain ends. Chains are numbered I, II in the order given. No end group written: not given here.

How the values were obtained:
[1] = test system: basal cAMP in cells expressing RXFP1; type: cell-based
[2] = test system: relaxin-stimulated cAMP via RXFP1; type: cell-based
[3] = test system: basal cAMP in cells expressing RXFP2 or pcDNA; assay: Effect of PDE inhibition on basal cAMP, HEK293 expressing RXFP2 or pcDNA; type: cell-based; settings: IBMX 100 μM, 30 min; RXFP1 versus RXFP2 or pcDNA
RXFP2/1 = assay: Single-cell FRET cAMP; settings: for EC50: pmEpac2, RXFP2/1
RXFP2 [4] = target: T1, RXFP2 (Homo sapiens, UniProt Q8WXD0); assay: Single-cell FRET cAMP; settings: for cellular response to sub-picomolar peptide: RXFP2, pmEpac2
T1 sequence (Q8WXD0 whole entry, species assumed): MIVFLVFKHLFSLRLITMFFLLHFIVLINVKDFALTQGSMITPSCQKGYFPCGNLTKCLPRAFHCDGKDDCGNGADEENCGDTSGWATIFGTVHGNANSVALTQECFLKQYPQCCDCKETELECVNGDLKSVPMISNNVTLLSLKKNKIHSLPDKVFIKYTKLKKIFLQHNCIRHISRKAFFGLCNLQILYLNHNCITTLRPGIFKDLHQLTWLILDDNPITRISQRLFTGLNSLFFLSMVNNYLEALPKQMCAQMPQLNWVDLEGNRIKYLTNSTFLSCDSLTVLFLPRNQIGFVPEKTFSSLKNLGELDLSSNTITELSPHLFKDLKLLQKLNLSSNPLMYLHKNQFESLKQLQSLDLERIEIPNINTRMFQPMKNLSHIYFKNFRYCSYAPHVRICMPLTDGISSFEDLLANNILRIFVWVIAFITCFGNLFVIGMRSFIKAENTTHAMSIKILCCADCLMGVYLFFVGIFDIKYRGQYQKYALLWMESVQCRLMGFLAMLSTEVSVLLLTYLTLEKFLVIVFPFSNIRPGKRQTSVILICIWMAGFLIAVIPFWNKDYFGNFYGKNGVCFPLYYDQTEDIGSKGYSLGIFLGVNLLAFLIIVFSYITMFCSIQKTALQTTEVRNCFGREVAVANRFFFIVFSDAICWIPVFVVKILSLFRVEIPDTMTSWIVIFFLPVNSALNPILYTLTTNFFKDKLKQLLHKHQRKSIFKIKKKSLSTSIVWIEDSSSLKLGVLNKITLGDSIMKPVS

RXFP2 [5] = target: T1, RXFP2; assay: Single-cell FRET cAMP
RXFP1 [6] = target: T2, RXFP1 (Homo sapiens, UniProt Q9HBX9); assay: Single-cell FRET cAMP; settings: HeLa, forskolin 1 μM
T2 sequence (Q9HBX9 1-757): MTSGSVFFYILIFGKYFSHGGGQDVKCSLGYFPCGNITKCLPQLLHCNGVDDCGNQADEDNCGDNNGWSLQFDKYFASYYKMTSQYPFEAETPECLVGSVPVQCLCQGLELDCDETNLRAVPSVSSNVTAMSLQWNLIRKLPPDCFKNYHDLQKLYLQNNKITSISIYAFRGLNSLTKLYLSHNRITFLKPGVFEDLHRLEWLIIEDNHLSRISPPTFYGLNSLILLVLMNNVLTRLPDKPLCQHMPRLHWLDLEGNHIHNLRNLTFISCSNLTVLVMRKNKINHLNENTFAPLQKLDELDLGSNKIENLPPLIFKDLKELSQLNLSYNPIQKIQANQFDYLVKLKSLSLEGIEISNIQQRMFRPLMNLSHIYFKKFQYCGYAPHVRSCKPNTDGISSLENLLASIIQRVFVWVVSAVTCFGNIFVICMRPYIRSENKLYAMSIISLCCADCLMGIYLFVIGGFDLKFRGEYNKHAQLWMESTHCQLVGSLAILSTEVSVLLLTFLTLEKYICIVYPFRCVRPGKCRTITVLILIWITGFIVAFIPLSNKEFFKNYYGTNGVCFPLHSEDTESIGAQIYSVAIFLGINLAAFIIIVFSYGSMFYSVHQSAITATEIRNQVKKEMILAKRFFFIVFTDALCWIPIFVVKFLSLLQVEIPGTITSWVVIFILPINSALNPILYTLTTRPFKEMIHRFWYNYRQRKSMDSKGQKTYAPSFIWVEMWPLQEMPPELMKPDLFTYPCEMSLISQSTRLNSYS

RXFP1 [7] = target: T3, RXFP1 (Rattus norvegicus, UniProt Q6R6I6); assay: Single-cell FRET cAMP; settings: rat cardiac fibroblasts
T3 sequence (Q6R6I6 1-758): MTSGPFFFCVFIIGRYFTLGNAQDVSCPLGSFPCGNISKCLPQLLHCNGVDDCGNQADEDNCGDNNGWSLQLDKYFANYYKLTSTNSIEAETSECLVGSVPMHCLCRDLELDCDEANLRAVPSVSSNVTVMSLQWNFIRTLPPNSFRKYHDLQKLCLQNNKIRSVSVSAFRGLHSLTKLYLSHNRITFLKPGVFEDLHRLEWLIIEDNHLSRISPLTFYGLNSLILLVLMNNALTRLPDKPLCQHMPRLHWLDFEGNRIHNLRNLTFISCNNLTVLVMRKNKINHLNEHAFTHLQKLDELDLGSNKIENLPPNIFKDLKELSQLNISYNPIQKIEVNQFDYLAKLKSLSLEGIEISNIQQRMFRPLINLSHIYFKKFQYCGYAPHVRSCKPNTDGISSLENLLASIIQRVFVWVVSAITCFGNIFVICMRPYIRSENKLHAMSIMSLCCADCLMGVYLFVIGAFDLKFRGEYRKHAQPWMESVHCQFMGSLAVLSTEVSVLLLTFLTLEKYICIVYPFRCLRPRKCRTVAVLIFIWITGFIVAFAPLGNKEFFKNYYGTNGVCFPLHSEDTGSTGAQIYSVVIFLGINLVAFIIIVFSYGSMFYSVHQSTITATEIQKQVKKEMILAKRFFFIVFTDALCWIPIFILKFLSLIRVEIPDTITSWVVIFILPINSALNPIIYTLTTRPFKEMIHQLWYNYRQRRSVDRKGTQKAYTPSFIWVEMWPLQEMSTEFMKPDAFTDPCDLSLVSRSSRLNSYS

RXFP1/2 = assay: Single-cell FRET cAMP; settings: relaxin 10 aM–100 μM, RXFP1/2, pmEpac2
[8] = test system: AC2-HA / RXFP1 signalosome; assay: AC2-HA co-immunoprecipitation from HEK293 cells co-expressing FLAG-RXFP1; settings: 5 min, n=3
HEK293 cells = assay: Single-cell FRET control, HEK293 cells expressing pmEpac2 alone; settings: no RXFP1, relaxin 1 nM
tRXFP1-703 = assay: Single-cell FRET cAMP
RXFP1 [9] = test system: RXFP1
[10] = test system: PDE4D3 / RXFP1 signalosome; assay: PDE4D3; settings: 5 min, n=3
RXFP1 S755A = assay: Single-cell FRET cAMP; settings: glEpac2
RXFP1 [11] = target: T2, RXFP1; assay: Single-cell FRET cAMP; settings: first phase, biphasic fit, 5 min AUC, glEpac2, HEK293-RXFP1; mean±s.e.m.
RXFP1 [12] = target: T2, RXFP1; assay: Single-cell FRET cAMP
tRXFP1-747 = assay: Single-cell FRET cAMP; settings: tRXFP1-747, glEpac2

## O=S(=O)(NCCNC/C=C/c1ccc(Br)cc1)c1cccc2cnccc12 [H89]
[1]
  effect on basal cAMP: basal cAMP levels were significantly increased
[2]
  effect on cAMP response to sub-picomolar (10 fM) relaxin: no further increase in cAMP

## CC(C)Cn1c(=O)n(C)c(=O)c2[nH]cnc21 [IBMX, 3-isobutyl-1-methylxanthine]
[1]
  effect on basal cAMP: significantly increased basal cAMP
[3]
  effect on basal cAMP, RXFP1-dependence: significantly increased basal cAMP only in cells expressing RXFP1
[2]
  effect on biphasic relaxin concentration–response curve: abolished the biphasic concentration–response curve
  effect on cAMP response to sub-picomolar (10 fM) relaxin: no further increase following stimulation with 10 fM relaxin

## CCCCCCOC(=O)[C@]1(O)C[C@@H]2O[C@@]1(C)n1c3ccccc3c3c4c(c5c6ccccc6n2c5c31)C(=O)NC4 [KT5720]
[1]
  effect on basal cAMP: basal cAMP levels were significantly increased
[2]
  effect on cAMP response to sub-picomolar (10 fM) relaxin: no further increase in cAMP

## O=C(Nc1cc(C(=O)Nc2ccc(S(=O)(=O)O)cc2S(=O)(=O)O)cc(C(=O)Nc2ccc(S(=O)(=O)O)cc2S(=O)(=O)O)c1)Nc1cc(C(=O)Nc2ccc(S(=O)(=O)O)cc2S(=O)(=O)O)cc(C(=O)Nc2ccc(S(=O)(=O)O)cc2S(=O)(=O)O)c1 [NF449]
[2]
  effect on cAMP response to sub-picomolar (10 fM) relaxin: significantly inhibited the 10 fM relaxin response

## CCCCOc1cc(CC2CNC(=O)N2)ccc1OC (centres unmarked) [Ro 20-1724]
[1]
  effect on basal cAMP: significantly increased basal cAMP
[2]
  effect on cAMP response to sub-picomolar (10 fM) relaxin: no further increase following stimulation with 10 fM relaxin

## CN(C(=O)CCCOc1ccc2[nH]c(=O)ccc2c1)C1CCCCC1 [cilostamide]
[1]
  effect on basal cAMP: no significant effect
[2]
  effect on cAMP response to sub-picomolar (10 fM) relaxin: remained responsive to stimulation with 10 fM relaxin

## C[C@H]1O[C@@H](n2cnc3c(N)ncnc32)C[C@@H]1OP(=O)(OCCSC(=O)C(C)(C)C)OCCSC(=O)C(C)(C)C [ddAB, 2′,5′-dd-3′-AMP-bis(tBuSATE)]
[2]
  effect on cAMP response to sub-picomolar (10 fM) relaxin: completely abolished the response to 10 fM relaxin

## O=C1OC2(c3ccccc31)c1ccc(O)c(O)c1Oc1c2ccc(O)c1O [gallein]
[2]
  effect on cAMP response to sub-picomolar (10 fM) relaxin: completely abolished the cAMP accumulation stimulated by 10 fM relaxin

## I: PTPEMREKLCGHHFVRALVRVCGGPRWSTEA / II: AAATNPARYCCLSGCTQQDLLTLCPY (disulfide I:10-II:11, I:22-II:24, II:10-II:15) [INSL3]
RXFP2/1; RXFP2/1, pmEpac2
  cAMP accumulation at sub-picomolar concentrations: not the closely related peptide INSL3, increased cAMP accumulation at sub-picomolar concentrations
RXFP2/1; read-out: INSL3 EC50, mean±s.e.m.
  EC50: 0.26 ± 0.04 nM
RXFP2 [4]
  EC50: 1.42 ± 0.92 nM
  cellular response to sub-picomolar peptide: no evidence of a cellular response
RXFP2 [5]
  EC50: 7.74 ± 1.67 nM

## PTX
RXFP1 [6]; PTX 100 ng/ml, 16 h
  effect on shape of relaxin concentration–response curve: revealed the biphasic concentration–response curve
[2]
  effect on cAMP response to sub-picomolar (10 fM) relaxin: did not affect the cAMP response to sub-picomolar concentrations of relaxin
  effect on maximal / classical cAMP response to relaxin: the maximal cAMP response to relaxin was enhanced
RXFP1 [7]; PTX pre-treatment
  effect on shape of relaxin concentration–response curve: revealed a biphasic, stimulatory concentration–response curve

## Relaxin
RXFP1/2
  biphasic cAMP response: not RXFP1/2
[8]; relaxin 10 nM
  association of AC2 with RXFP1 / stimulatory sub-complex: reduces the association between RXFP1 and PDE4D3 or AC2
[8]; relaxin 10 fM
  association of AC2 with RXFP1 / stimulatory sub-complex: not 10 fM
HEK293 cells
  cAMP response: no detectable cAMP response
tRXFP1-703; tRXFP1-703 (truncated following helix 8), glEpac2
  response to sub-picomolar relaxin: remained responsive to stimulation with sub-picomolar concentrations of relaxin
tRXFP1-703; tRXFP1-703, glEpac2
  maximal cAMP response to relaxin: reduced following truncation
RXFP1 [9]
  cAMP response: no detectable cAMP response
RXFP2/1; RXFP2/1, pmEpac2
  cAMP accumulation at sub-picomolar concentrations: increased cAMP accumulation at sub-picomolar concentrations
RXFP2/1; first phase, pmEpac2, RXFP2/1 (RXFP2-ectodomain, RXFP1-transmembrane/C-terminus), mean±s.e.m.
  Relaxin EC50 1: 7.86±1.30 aM
RXFP2/1; read-out: Relaxin EC50 2, second phase, mean±s.e.m.
  EC50: 0.33 ± 0.08 nM
RXFP2/1; relaxin 10 aM–100 μM, RXFP2/1, pmEpac2
  biphasic cAMP response: a biphasic response was evident
[10]; relaxin 10 nM
  association of PDE4D3 with RXFP1 / regulatory sub-complex: reduces the association between RXFP1 and PDE4D3 or AC2
[10]; relaxin 10 fM
  association of PDE4D3 with RXFP1 / regulatory sub-complex: not 10 fM
RXFP2 [4]
  cellular response to sub-picomolar peptide: no evidence of a cellular response
RXFP2 [4]; read-out: Relaxin EC50 2, pmEpac2, HEK293-RXFP2, 5 min AUC, mean±s.e.m.
  EC50: 18.1 ± 3.84 nM
RXFP1 S755A
  cAMP response to sub-picomolar relaxin, effect of mutation: no effect
RXFP1 [11]
  Relaxin EC50 1: 140.34±20.73 aM
RXFP1 [6]; without PTX, glEpac2
  cAMP response to relaxin: significant concentration-dependent increase in cAMP, which was maintained within the classical relaxin concentration range
RXFP2 [5]; read-out: Relaxin EC50 2, glEpac2, HEK293-RXFP2, 5 min AUC, mean±s.e.m.
  EC50: 57.7 ± 6.94 nM
RXFP1 [12]; first phase, biphasic fit, 5 min AUC, pmEpac2, HEK293-RXFP1, mean±s.e.m.
  Relaxin EC50 1: 10.93±0.92 aM
RXFP1 [12]; maximal relaxin 100 nM versus FIP (10 μM forskolin, 100 μM IBMX, 100 nM PGE1)
  saturation of pmEpac2 sensor / response relative to FIP: did not saturate the pmEpac2 sensor
RXFP1 [7]; forskolin 1 μM, without PTX
  cAMP response to sub-picomolar relaxin: significant increase in cAMP, which then declined within the classical concentration range
tRXFP1-747
  cAMP response to sub-picomolar relaxin, effect of mutation: no effect
  maximal cAMP response to relaxin: reduced through tRXFP1-747

## cholera toxin
[1]
  effect on basal cAMP: potentiated basal
[2]
  effect on cAMP response to sub-picomolar (10 fM) relaxin: response to 10 fM relaxin reaching the maximal relaxin response
